Assay results as given in patent US20210379106A1, “OXABICYCLOHEPTANES FOR ENHANCING CAR T CELL FUNCTION” (Lixte Biotechnology, Inc., priority 2018, published 2021).

Legend:
PP2A = PP2A (Homo sapiens, UniProt P67775); conditions: cited from earlier work
solid tumor = conditions: largest phase 1 trial, cited from earlier work
CD19 CAR T cells = assay: IFNγ intracellular staining / flow cytometry of CD19CAR T cells after co-culture with CD19+ tumor cells; assay type: cell-based; conditions: for percentage of CAR+/CD8+/INFγ+: 0.5 μM LB-100, 1.0 μg/mL Nivo
Procedure: FIG. 1. Generation of CD19 CAR T cells PBMC from healthy donor were activated with CD3/CD28 beads and transduced with lentivirus encoding second generation of CD19CAR containing costimulatory signaling CD28. After 14 days of ex vivo expansion, percentages of CD8 and CAR positive T cells were determined by flow cytometry.
(§1) FIG. 2. […] Post treatment, 0.1×10^6 CD19 CART cells were then co-cultured with 0.1×10^6 different CD19+ tumor cells for 24 hours followed by surface staining of CAR and CD8 and intracellular staining of IFN-γ. Percentages of IFNγ+CD8+ CAR T cells in gated CAR positive population are presented.
FIG. 3. […] Post treatment, 0.1×10^6 CD19CAR T cells were then co-cultured with 0.1×10^6 CD19+Daudi lymphoma cells for 24 hours followed by surface staining of CAR and CD8 and intracellular staining of IFN-γ. Percentages of IFN-γ+CD8+ CAR T cells (A) and FACS plots (B) in gated CAR positive population are presented.
as §1, with “4.” for “2.”, “CD19CAR T” for “CD19 CART”, “IFN-γ. Myeloid leukemic cells (KG1a) were used as negative control.” for “IFN-γ.”, “IFN-γ+CD8+” for “IFNγ+CD8+”
We assessed the effects of LB-100 and Nivo on CD19 CART cell function. Propagated CD19CAR T cells were stimulated with dynal beads coated with antibody against CD19 (FMC63) at 1:1 ratio for five days and cultured under the following conditions: CD19CAR T cell alone, CD19CAR+ 0.5 μM LB-100, CD19CAR+ 1.0 μg/mL Nivo, and CD19CAR with combination of LB-100 and Nivo. Drugs were supplemented into the culture every other day. Functional assay was performed six days after treatment. The cells were then co-cultured with the different CD19+ ALL cells SupB15 and different lymphoma Daudi and Raji cells overnight. Cells were then stained for Interferon-gamma (IFNγ) followed by flow cytometry analysis. Acute myeloid leukemia (AML) cells KG1a were used as negative controls. […] To test the antitumor activity of the combinatorial therapy in vivo we established an acute lymphoid leukemia (ALL) model by inoculating SupB15-GFP-ffluc cells into NSG mice, 5 days after tumor engraftment, mice were treated with CD19CAR T cells by intravenous injection, along with intraperitoneally injections of LB100 (4 μg/mouse), Nivo (200 μgm/mouse) or LB100+Nivo every other day as combination therapy.

[1] = test system: cell lines from a variety of human solid tumors; conditions: cited from earlier work

PP2A, sequence (P67775 whole entry): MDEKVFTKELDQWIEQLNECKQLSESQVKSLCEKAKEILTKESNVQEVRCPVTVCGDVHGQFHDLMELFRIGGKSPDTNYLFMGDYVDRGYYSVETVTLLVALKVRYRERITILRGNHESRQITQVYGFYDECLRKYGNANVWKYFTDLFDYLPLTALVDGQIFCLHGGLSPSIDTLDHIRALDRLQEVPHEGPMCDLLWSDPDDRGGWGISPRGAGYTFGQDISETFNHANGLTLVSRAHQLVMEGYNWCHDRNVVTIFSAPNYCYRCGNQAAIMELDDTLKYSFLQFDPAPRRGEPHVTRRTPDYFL

SMILES: O=C1OC(=O)[C@H]2[C@@H]1[C@@H]1CC[C@H]2O1 [norcantharidin]
- inhibition of PP2A (PP2A): potent inhibitorsof PP2A

SMILES: C[C@@](O)(/C=C/[C@H]1CC=CC(=O)O1)[C@@H](C[C@@H](O)\C=C/C=C\C=C\CO)OP(=O)(O)O [fostriecin, Fostriecin]
- dose-limiting toxicity (DLT) (solid tumor; 46 solid tumor patients): without dose-limiting toxicity
- disease stability, share of solid tumor patients (solid tumor; 16 of 46 patients): 34.8%

SMILES: C[C@@]12C(=O)OC(=O)[C@]1(C)[C@H]1CC[C@@H]2O1 [Cantharidin]
- inhibition of PP2A (PP2A): potent inhibitor of PP2A

SMILES: CN1CCN(C(=O)C2C(C(=O)O)[C@H]3CC[C@@H]2O3)CC1 (stereo partly shown) [LB-100]
- effector function of CD19CAR T cells (IFNγ+CD8+ CAR T cells) (CD19 CAR T cells; FIG. 2, CD19 antibody coated beads, different concentrations of LB100 on days 1, 3 and 5, different CD19+ tumor cells 24 hours): improves effector function of CD19CAR T cells in a dose dependent manner
- percentage of CAR+/CD8+/INFγ+ (CD19 CAR T cells; co-cultured with Daudi cells overnight, CD19 antibody bead stimulation): 10.99%
- percentage of CAR+/CD8+/INFγ+ (CD19 CAR T cells; co-cultured with Raji cells overnight, CD19 antibody bead stimulation): 10.30%
- percentage of CAR+/CD8+/INFγ+ (CD19 CAR T cells; co-cultured with SupB15 cells overnight, CD19 antibody bead stimulation): 10.14%
- percentage of CAR+/CD8+/INFγ+ (CD19 CAR T cells; corresponding treatment, co-cultured with KG1A AML cells (negative control)): 6.33%
- percentage of CAR+/CD8+/INFγ+ (CD19 CAR T cells; corresponding treatment, media alone (no tumor cells)): 7.28%
- proliferation of cell lines [1]: inhibit proliferation
- inhibition of PP2A (PP2A): potent inhibitor of PP2A

SMILES: CCN1CCCC1CNC(=O)c1cc(S(=O)(=O)CC)c(NC)cc1OC (stereo not shown) [LB-102]
- proliferation of cell lines [1]: inhibit proliferation
